According to ChEMBL document CHEMBL1149877, “Synthesis and biological activities of 2-oxocycloalkylsulfonamides” (Bioorg Med Chem, 2008):
≈ marks a conversion by molar mass, not a printed value.

Legend:
Sclerotinia sclerotiorum = assay: Antifungal activity against Sclerotinia sclerotiorum; assay type: functional, organism-based
Botrytis cinerea = assay: Antifungal activity against Botrytis cinerea Pers; assay type: functional, organism-based
HL-60 = assay: Antitumor activity against human HL60 cells at 100 ug/mL by MTT method; assay type: functional
Bel-7402 = assay: Antitumor activity against human Bel7402 cells at 100 ug/mL by SRB method; assay type: functional
KB = assay: Antitumor activity against human KB cells at 100 ug/mL by SRB method; assay type: functional
BGC-823 = assay: Antitumor activity against human BGC823 cells at 100 ug/mL by SRB method; assay type: functional

Row | Structure (SMILES) | EC50 (Sclerotinia sclerotiorum) | EC50 (Botrytis cinerea) | inhibition at 100 µg/mL (HL-60) | inhibition at 100 µg/mL (Bel-7402) | inhibition at 100 µg/mL (KB) | inhibition at 100 µg/mL (BGC-823)
1 | O=C1CCCCC1S(=O)(=O)Nc1cc(C(F)(F)F)cc(C(F)(F)F)c1 (centres undefined) | 24.1 µg/mL (≈ 62 µM) | 3.96 µg/mL (≈ 10.2 µM) | 95.9% | 66.9% | 76% | 70.8%
2 | O=C1CCCCC1S(=O)(=O)N1CCOCC1 (centres undefined) | 331 µg/mL (≈ 1340 µM) | 85.2 µg/mL (≈ 345 µM) | 11% | 6.01% | -4.35% | 21.3%
3 | O=C1CCCCC1S(=O)(=O)Nc1ccccc1Br (centres undefined) | 47.8 µg/mL (≈ 144 µM) | 50.6 µg/mL (≈ 152 µM) | 15.3% | 22.1% | -14.4% | 29.6%
4 | Cc1cccc(NS(=O)(=O)C2CCCCC2=O)c1C (centres undefined) | 59.3 µg/mL (≈ 211 µM) | 24.2 µg/mL (≈ 86 µM) | 9.38% | 21.8% | -20.6% | 24.5%
5 | COc1cc(OC)nc(NS(=O)(=O)C2CCCCC2=O)n1 (centres undefined) | 197 µg/mL (≈ 626 µM) | 28.6 µg/mL (≈ 90.8 µM) | 2.62% | 39.3% | 2.73% | 26.4%
6 | O=C1CCCCCC1S(=O)(=O)Nc1ccc(Cl)c(Cl)c1 (centres undefined) | 16.4 µg/mL (≈ 48.7 µM) | 2.38 µg/mL (≈ 7.08 µM) | 15% | 4.03% | -6.3% | 28.9%
7 | Cc1cccc(NS(=O)(=O)C2CCCCCC2=O)c1C (centres undefined) | 47.6 µg/mL (≈ 161 µM) | 11.6 µg/mL (≈ 39.3 µM) | 22.9% | 12.1% | 2.01% | 23.8%
8 | O=C1CCCCCC1S(=O)(=O)Nc1cc(C(F)(F)F)cc(C(F)(F)F)c1 (centres undefined) | 8.05 µg/mL (≈ 20 µM) | 2.43 µg/mL (≈ 6.02 µM) | 95.8% | 45.3% | 59% | 57%
9 | Cc1ccc(NS(=O)(=O)C2CCCCC2=O)cc1 (centres undefined) | 116 µg/mL (≈ 434 µM) | 21.2 µg/mL (≈ 79.4 µM) | -3.55% | 27.5% | -22.2% | 32%
10 | N#Cc1c(Cl)c(Cl)c(Cl)c(C#N)c1Cl [CHLOROTHALONIL] | 7.16 µg/mL (≈ 26.9 µM) | – | – | – | – | –
11 | CC12CC1(C)C(=O)N(c1cc(Cl)cc(Cl)c1)C2=O (centres undefined) [PROCYMIDONE] | – | 2.45 µg/mL (≈ 8.62 µM) | – | – | – | –

Now from value to molecule, other results behind:

Row | EC50 (Sclerotinia sclerotiorum) | EC50 (Botrytis cinerea) | Structure (SMILES) | inhibition at 100 µg/mL (HL-60) | inhibition at 100 µg/mL (Bel-7402) | inhibition at 100 µg/mL (KB) | inhibition at 100 µg/mL (BGC-823)
12 | 69.4 µg/mL (≈ 241 µM) | 35.2 µg/mL (≈ 122 µM) | O=C1CCCCC1S(=O)(=O)Nc1ccccc1Cl (centres undefined) | 0.29% | 1.98% | -10.1% | 29.2%
13 | 53.4 µg/mL (≈ 186 µM) | 17 µg/mL (≈ 59 µM) | O=C1CCCCC1S(=O)(=O)Nc1ccc(Cl)cc1 (centres undefined) | -13% | 4.47% | -3.83% | 16%
14 | 24.2 µg/mL (≈ 75.2 µM) | 7.23 µg/mL (≈ 22.4 µM) | O=C1CCCCC1S(=O)(=O)Nc1ccc(Cl)c(Cl)c1 (centres undefined) | 13.5% | 1.39% | 17.8% | 5.54%
15 | 137 µg/mL (≈ 480 µM) | 37.7 µg/mL (≈ 132 µM) | Cc1cc(F)ccc1NS(=O)(=O)C1CCCCC1=O (centres undefined) | -0.99% | 3.22% | -3.72% | 28.7%
16 | 47.5 µg/mL (≈ 134 µM) | 2.12 µg/mL (≈ 5.96 µM) | O=C1CCCCC1S(=O)(=O)Nc1ccc(Cl)cc1C(F)(F)F (centres undefined) | 78.6% | 20.9% | 11.2% | 36.4%
17 | 112 µg/mL (≈ 397 µM) | 17 µg/mL (≈ 60.3 µM) | Cc1ccc(NS(=O)(=O)C2CCCCC2=O)c(C)c1 (centres undefined) | 12.2% | 0.52% | 7.97% | 15.6%
18 | 144 µg/mL (≈ 448 µM) | 85.2 µg/mL (≈ 265 µM) | O=C1CCCCC1S(=O)(=O)Nc1cccc(C(F)(F)F)c1 (centres undefined) | 17% | 11.4% | -6.3% | 21.6%
19 | 70.5 µg/mL (≈ 181 µM) | 3.66 µg/mL (≈ 9.4 µM) | O=C1CCCCC1S(=O)(=O)Nc1cc(C(F)(F)F)ccc1C(F)(F)F (centres undefined) | 95.7% | 68.3% | 68.6% | 57.7%
